Here are results for four compounds from patent publication US10568324B2, “Agricultural and horticultural material, and plant cultivation method which promote coloring in fruit” (AJINOMOTO CO., INC., priority 2015, dated 2020).

Converted amounts (≈) assume the structure as drawn. Like-named read-outs stand apart in the source and are kept apart here.

The subject of series [1] is grape cultured cells (VR calluses). The series can be described thus: Anthocyanin content in grape calluses treated with various amino acids (Reference Example 1(1)). In kind it is cell-based, Vitis vinifera L. Particulars: 5 days. As for the experimental part: Cells derived from a European grape cell line (Vitis vinifera L.; RIKEN BioResource Center; VR, management number RPC00003) were subcultured on MS agar medium. The subcultured VR calluses (i.e. cell clusters) were each transferred to MS agar medium containing 5 mM of each amino acid solution, and cultured. As a positive control, 100 μM abscisic acid (ABA) was added, which is a known color-promotor. Five days after the transfer, each callus was freeze-dried and ground, and anthocyanin was extracted with a 1% HCl solution in MeOH.

Series [2] concerns Cabernet Sauvignon grape plants. The series can be described thus: Effect of isoleucine on coloring of grape berries, sprinkled on bunches in test farm (Reference Example 1(2)). In kind it is in vivo. Particulars: 10 mM Ile + 0.1% Applauch BI sprinkled on bunches in veraison period; FIG. 1. As for the experimental part:
Cabernet Sauvignon grape plants that had been cultivated in a test farm and had entered into the veraison period were chosen for this experiment. Eight bunches of grapes on each of two grape plants, 16 bunches of grapes in total, were selected for each test group. On each bunch of grapes, about 6.25 mL of 0.1% Applauch BI (Kao, control), 1 g/L of abscisic acid (ABA)+0.1% Applauch BI (positive control), or 10 mM isoleucine (Ile)+0.1% Applauch BI was sprinkled. As samples, 4 bunches for each test group were collected 4 times. Anthocyanin present in the pericarps was extracted with a mixed solution of water and acetone (1:2), and the anthocyanin content was measured in the same manner as described above.

For series [3] the following is noted: cited from earlier work.

As for `CC[C@H](C)[C@H](N)C(=O)O` [Ile, isoleucine], the “anthocyanin content of callus (in words)” value in series [1] (5 mM amino acid, compared among the amino acids of Table 1) is on record as “highest anthocyanin content”. The “anthocyanin content in pericarps” value in series [2] is reported as “increased”. The solubility in water entry in series [3] is reported as “about 0.3 M”.

As for `C[C@H](N)C(=O)O` [Ala], the “Relative content of anthocyanin” value in series [1] (5 mM amino acid in MS agar medium, relative to positive control 100 μM ABA taken as 100%) worked out at 7%.

For the compound `N[C@@H](Cc1ccccc1)C(=O)O` [Phe, phenylalanine], the figures for the solubility in water in series [3] (20° C.), in series [3] (50° C.) and in series [3] were 27 mg/mL (≈ 163 mM), 40 mg/mL (≈ 242 mM) and “about 0.2 M”, respectively.

Consider `CC(C)C[C@H](N)C(=O)O` [Leu, leucine], for which the solubility in water in series [3] (20° C.) was 24 mg/mL (≈ 183 mM); in series [3] (50° C.), 29 mg/mL (≈ 221 mM); in series [3] it was “about 0.2 M”.
